In ChEMBL document CHEMBL1133406, “Potent antagonists of gonadotropin releasing hormone receptors derived from quinolone-6-carboxamides” (Bioorg Med Chem Lett, 2000):

Columns and labels:
[1] = molecular target: T1, Gonadotropin-releasing hormone receptor (Homo sapiens, UniProt P30968); assay: In vitro inhibitory activity against […] CHO cells stably expressing human gonadotropin-releasing hormone receptor; type: cell-based
T1 sequence (P30968 whole entry): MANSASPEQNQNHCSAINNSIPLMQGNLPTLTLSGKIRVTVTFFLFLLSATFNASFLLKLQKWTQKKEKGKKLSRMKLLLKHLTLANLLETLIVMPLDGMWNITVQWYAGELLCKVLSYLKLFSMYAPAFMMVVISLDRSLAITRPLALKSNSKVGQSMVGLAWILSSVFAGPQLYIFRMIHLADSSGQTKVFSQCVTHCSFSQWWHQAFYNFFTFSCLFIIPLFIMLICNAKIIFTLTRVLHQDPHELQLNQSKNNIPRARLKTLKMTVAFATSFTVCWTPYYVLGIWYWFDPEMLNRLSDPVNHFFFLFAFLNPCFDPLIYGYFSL

[2] = molecular target: T2, Gonadotropin-releasing hormone receptor (Rattus norvegicus, UniProt P30969); assay: In vitro inhibition of GnRH stimulated release of luteinizing hormone from the rat primary pituitary cells.; type: functional, cell-based, Pituitary gland cell
T2 sequence (P30969 whole entry): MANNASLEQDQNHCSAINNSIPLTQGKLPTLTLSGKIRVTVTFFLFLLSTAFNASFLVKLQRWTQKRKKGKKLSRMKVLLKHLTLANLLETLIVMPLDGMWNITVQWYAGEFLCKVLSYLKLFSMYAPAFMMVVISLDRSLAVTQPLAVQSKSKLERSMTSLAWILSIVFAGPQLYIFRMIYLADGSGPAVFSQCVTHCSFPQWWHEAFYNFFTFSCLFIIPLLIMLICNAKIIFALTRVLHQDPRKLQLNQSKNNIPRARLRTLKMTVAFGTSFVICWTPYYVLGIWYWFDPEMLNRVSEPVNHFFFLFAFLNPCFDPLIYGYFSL

[3] = molecular target: T1, Gonadotropin-releasing hormone receptor; assay: In vitro inhibition of GnRH-stimulated phosphatidyl inositol hydrolysis in CHO cells stably expressing gonadotropin-releasing hormone receptor.; type: functional, cell-based

Row | Compound | IC50 [1] | IC50 [2] | IC50 [3]
1 | Cc1cc(C)cc(-c2c(O)nc3cc(Cl)c(C(=O)Nc4ncccn4)cc3c2OCCC2CCCCN2)c1 (stereo unspecified) | 290 nM | > 1280 nM | > 3200 nM
2 | COc1nccc(NC(=O)c2cc3c(OCCC4CCCCN4)c(-c4cc(C)cc(C)c4)c(O)nc3cc2Cl)n1 (stereo unspecified) | 9 nM | – | 133 nM
3 | Cc1cc(C)cc(-c2c(O)nc3cc(Cl)c(C(=O)Nc4cc(C)no4)cc3c2OCCC2CCCCN2)c1 (stereo unspecified) | 23 nM | > 1280 nM | –
4 | CCC(C)N(C(=O)c1cc2c(OCCC3CCCCN3)c(-c3cc(C)cc(C)c3)c(O)nc2cc1Cl)C(C)CC (stereo unspecified) | – | > 1280 nM | –
5 | Cc1cc(C)cc(-c2c(O)nc3cc(Cl)c(C(=O)Nc4ccc(N(C)C)cc4)cc3c2OCCC2CCCCN2)c1 (stereo unspecified) | 10.9 nM | – | 360 nM
6 | Cc1cc(C)cc(-c2c(O)nc3cc(Cl)c(C(=O)Nc4nc[nH]n4)cc3c2OCCC2CCCCN2)c1 (stereo unspecified) | 320 nM | > 1280 nM | 775 nM
7 | CCN(CC)C(=O)c1cc2c(OCCC3CCCCN3)c(-c3cc(C)cc(C)c3)c(O)nc2cc1Cl (stereo unspecified) | – | > 1280 nM | –
8 | Cc1cc(C)cc(-c2c(O)nc3cc(Cl)c(C(=O)Nc4ccccn4)cc3c2OCCC2CCCCN2)c1 (stereo unspecified) | 3.6 nM | 1260 nM | 19 nM
9 | Cc1cc(C)cc(-c2c(O)nc3cc(Cl)c(C(=O)Nc4ccncc4)cc3c2OCCC2CCCCN2)c1 (stereo unspecified) | 3.8 nM | 1090 nM | 10.6 nM
10 | Cc1cc(C)cc(-c2c(O)nc3cc(Cl)c(C(=O)Nc4ccnc(C5CC5)n4)cc3c2OCCC2CCCCN2)c1 (stereo unspecified) | 15 nM | – | 250 nM
11 | CCn1nccc1NC(=O)c1cc2c(OCCC3CCCCN3)c(-c3cc(C)cc(C)c3)c(O)nc2cc1Cl (stereo unspecified) | 860 nM | – | 977 nM
12 | Cc1cc(C)cc(-c2c(O)nc3cc(Cl)c(C(=O)Nc4cnccn4)cc3c2OCCC2CCCCN2)c1 (stereo unspecified) | 7 nM | 2200 nM | 16 nM
13 | Cc1cc(C)cc(-c2c(O)nc3cc(Cl)c(C(=O)Nc4ccncn4)cc3c2OCCC2CCCCN2)c1 (stereo unspecified) | 3.2 nM | 240 nM | 8.3 nM
14 | Cc1cc(C)cc(-c2c(O)nc3cc(Cl)c(C(=O)Nc4nnc(C)s4)cc3c2OCCC2CCCCN2)c1 (stereo unspecified) | 28 nM | > 1280 nM | –
15 | Cc1cc(C)cc(-c2c(O)nc3cc(Cl)c(C(=O)Nc4cccnc4)cc3c2OCCC2CCCCN2)c1 (stereo unspecified) | 32 nM | > 1280 nM | 130 nM
16 | Cc1cc(C)cc(-c2c(O)nc3cc(Cl)c(C(=O)Nc4nncs4)cc3c2OCCC2CCCCN2)c1 (stereo unspecified) | 32 nM | – | 22 nM
17 | Cc1cc(C)cc(-c2c(O)nc3cc(Cl)c(C(=O)NCc4ccc5c(c4)OCO5)cc3c2OCCC2CCCCN2)c1 (stereo unspecified) | 110 nM | > 1280 nM | 591 nM
18 | Cc1cc(C)cc(-c2c(O)nc3cc(Cl)c(C(=O)Nc4cc(C)nc(C)n4)cc3c2OCCC2CCCCN2)c1 (stereo unspecified) | 40 nM | – | 486 nM

Next, values leading:

Row | IC50 [1] | IC50 [2] | IC50 [3] | Compound
19 | 0.8 nM | 23.9 nM | 5.9 nM | Cc1cc(C)cc(-c2c(O)nc3cc(Cl)c(C(=O)Nc4cnsn4)cc3c2OCC[C@@H]2CCCCN2)c1
20 | 1.8 nM | 87.2 nM | 33.3 nM | Cc1cc(C)cc(-c2c(O)nc3cc(Cl)c(C(=O)Nc4ccnc(C)n4)cc3c2OCCC2CCCCN2)c1 (stereo unspecified)
21 | 2.9 nM | 521 nM | 21.5 nM | Cc1cc(C)cc(-c2c(O)nc3cc(Cl)c(C(=O)Nc4cc(C)ns4)cc3c2OCCC2CCCCN2)c1 (stereo unspecified)
22 | 2.3 nM | 513 nM | 77.5 nM | Cc1cc(C)cc(-c2c(O)nc3cc(Cl)c(C(=O)Nc4cc(C)on4)cc3c2OCCC2CCCCN2)c1 (stereo unspecified)
23 | 1.4 nM | 79.2 nM | 14.5 nM | Cc1cc(C)cc(-c2c(O)nc3cc(Cl)c(C(=O)Nc4cc(Cl)ncn4)cc3c2OCCC2CCCCN2)c1 (stereo unspecified)
24 | 0.9 nM | 96.5 nM | 5 nM | Cc1cc(C)cc(-c2c(O)nc3cc(Cl)c(C(=O)Nc4ccncn4)cc3c2OCC[C@@H]2CCCCN2)c1
25 | 2 nM | 292 nM | 6.4 nM | Cc1cc(C)cc(-c2c(O)nc3cc(Cl)c(C(=O)Nc4cnsn4)cc3c2OCCC2CCCCN2)c1 (stereo unspecified)
26 | 2.8 nM | 167 nM | 44 nM | Cc1cc(C)cc(-c2c(O)nc3cc(Cl)c(C(=O)Nc4cc(C)ncn4)cc3c2OCCC2CCCCN2)c1 (stereo unspecified)
